Measurements reported in ChEMBL document CHEMBL1201862, “PubChem BioAssay data set” (2004).
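Briefly, cells in 96-well plates were exposed to five compound concentrations for 48 h, and endpoints were estimated by linear interpolation. Abbreviation: GI50, concentration required for 50% inhibition of growth.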 Active and inactive are the calls of the source. Rule as the data show it: active = GI50 up to about 1.1 µM and inactive = higher.

Key:
Experiment in all cases: NCI-60 cell line screen, 48 h
[1] = tested on: COLO 205
[2] = tested on: EKVX
[3] = tested on: HCC 2998
[4] = tested on: HOP-92
[5] = tested on: HT-29
[6] = tested on: K562
[7] = tested on: LOX IMVI
[8] = tested on: MOLT-4
[9] = tested on: NCI-H522
[10] = tested on: OVCAR-8
[11] = tested on: SF-268
[12] = tested on: SK-MEL-2
[13] = tested on: SK-MEL-5
[14] = tested on: SNB-19
[15] = tested on: SR
[16] = tested on: U-251
[17] = tested on: MDA-MB-231
[18] = tested on: MDA-N
[19] = tested on: PC-3

SMILES | GI50 [1] | GI50 [2] | GI50 [3] | GI50 [4] | GI50 [5] | GI50 [6] | GI50 [7] | GI50 [8] | GI50 [9] | GI50 [10] | GI50 [11] | GI50 [12] | GI50 [13] | GI50 [14] | GI50 [15] | GI50 [16] | GI50 [17] | GI50 [18] | GI50 [19]
O=C(CCN(CCO)CCO)Nc1ccc2c(c1)C(=O)c1ccc(NC(=O)CCN(CCO)CCO)cc1C2=O | 10.7 µM (inactive) | 5.69 µM (inactive) | 1.51 µM (inactive) | 26.7 µM (inactive) | 28.1 µM (inactive) | 18.5 µM (inactive) | 14.2 µM (inactive) | 13.8 µM (inactive) | 5.89 µM (inactive) | 14 µM (inactive) | 12.2 µM (inactive) | 3.37 µM (inactive) | 17.2 µM (inactive) | 22.5 µM (inactive) | 14.8 µM (inactive) | 22.3 µM (inactive) | – | – | –
COc1ccc(C(OC(C)=O)C2C(=C(C#N)C#N)c3ccccc3C2=C(C#N)C#N)cc1 (stereo not drawn) | – | 39.4 µM (inactive) | 22.6 µM (inactive) | 45.1 µM (inactive) | 29.9 µM (inactive) | 30.1 µM (inactive) | 33.9 µM (inactive) | 25.9 µM (inactive) | 38.2 µM (inactive) | 60.7 µM (inactive) | 35.6 µM (inactive) | 27.7 µM (inactive) | 48 µM (inactive) | – | 16.1 µM (inactive) | 41.9 µM (inactive) | 39.5 µM (inactive) | 42.1 µM (inactive) | 21.8 µM (inactive)
COc1ccc2c(C(=O)O)cc3ccccc3c2c1OC | 22.1 µM (inactive) | 20.1 µM (inactive) | 21.2 µM (inactive) | 21.9 µM (inactive) | 21.6 µM (inactive) | 24.2 µM (inactive) | 17.6 µM (inactive) | 32.9 µM (inactive) | 13.8 µM (inactive) | 22 µM (inactive) | 19.4 µM (inactive) | 30.5 µM (inactive) | – | 43.6 µM (inactive) | 30.5 µM (inactive) | 40.9 µM (inactive) | – | – | –
C=CC1=CC(C)C[C@]1(O)C(=O)OC (stereo partly drawn) | < 0.01 µM (active) | < 0.01 µM (active) | < 0.01 µM (active) | < 0.01 µM (active) | < 0.01 µM (active) | < 0.01 µM (active) | < 0.01 µM (active) | < 0.01 µM (active) | > 100 µM (inactive) | < 0.01 µM (active) | < 0.01 µM (active) | < 0.01 µM (active) | > 100 µM (inactive) | < 0.01 µM (active) | 2.75 µM (inactive) | < 0.01 µM (active) | – | – | –
COP(=O)(OC)/C(=C/c1cn(C(C)=O)c2ccccc12)NC(C)=O | 61.4 µM (inactive) | – | > 10 µM (inactive) | > 10 µM (inactive) | 41.6 µM (inactive) | 6.75 µM (inactive) | 13 µM (inactive) | > 10 µM (inactive) | > 100 µM (inactive) | 32.2 µM (inactive) | – | 2.18 µM (inactive) | 22.1 µM (inactive) | – | 15.8 µM (inactive) | 33.2 µM (inactive) | 36.1 µM (inactive) | 13.8 µM (inactive) | 22.4 µM (inactive)
CN/N=C(\C)CC(=O)Nc1cccc(Cl)c1C | > 100 µM (inactive) | > 100 µM (inactive) | > 100 µM (inactive) | > 100 µM (inactive) | > 100 µM (inactive) | > 100 µM (inactive) | > 100 µM (inactive) | > 100 µM (inactive) | 38.6 µM (inactive) | > 100 µM (inactive) | > 100 µM (inactive) | > 100 µM (inactive) | > 100 µM (inactive) | > 100 µM (inactive) | 28.6 µM (inactive) | > 100 µM (inactive) | – | – | –
O=C(Sc1c(-c2ccccc2)c(=O)n(-c2ccccc2)c(=S)n1-c1ccccc1)c1ccc(Cl)cc1 | > 100 µM (inactive) | > 100 µM (inactive) | > 100 µM (inactive) | 55.6 µM (inactive) | > 100 µM (inactive) | 75 µM (inactive) | > 100 µM (inactive) | 49.3 µM (inactive) | 81.5 µM (inactive) | > 100 µM (inactive) | > 100 µM (inactive) | – | – | > 100 µM (inactive) | > 100 µM (inactive) | > 100 µM (inactive) | 55.8 µM (inactive) | > 100 µM (inactive) | –
CCCCN(CCCC)CCCn1cnc2ncccc2c1=O | 65.6 µM (inactive) | > 100 µM (inactive) | > 100 µM (inactive) | > 100 µM (inactive) | > 100 µM (inactive) | > 100 µM (inactive) | > 100 µM (inactive) | > 100 µM (inactive) | > 100 µM (inactive) | > 100 µM (inactive) | > 100 µM (inactive) | > 100 µM (inactive) | 72.6 µM (inactive) | > 100 µM (inactive) | > 100 µM (inactive) | > 100 µM (inactive) | – | – | –
COc1c2c(cc3c1C(=O)Cc1ccc4c(c1CN(C)CC3)OCO4)OCO2 | 43.1 µM (inactive) | > 100 µM (inactive) | > 100 µM (inactive) | 5.71 µM (inactive) | 29.4 µM (inactive) | 28.8 µM (inactive) | > 100 µM (inactive) | 36.7 µM (inactive) | > 100 µM (inactive) | > 100 µM (inactive) | > 100 µM (inactive) | > 100 µM (inactive) | 40.3 µM (inactive) | > 100 µM (inactive) | 43.2 µM (inactive) | 86.9 µM (inactive) | – | – | –
NC1=C(N2CCOCC2)C(=O)NC2=N/C(=C\c3ccccc3)C(=O)N21 | > 100 µM (inactive) | > 100 µM (inactive) | > 100 µM (inactive) | > 100 µM (inactive) | > 100 µM (inactive) | 26.1 µM (inactive) | > 100 µM (inactive) | 35.8 µM (inactive) | > 100 µM (inactive) | > 100 µM (inactive) | > 100 µM (inactive) | – | > 100 µM (inactive) | > 100 µM (inactive) | 49.2 µM (inactive) | > 100 µM (inactive) | > 100 µM (inactive) | > 100 µM (inactive) | –
O=C(NCC#CCO)C(F)(F)F | – | > 100 µM (inactive) | > 100 µM (inactive) | – | > 100 µM (inactive) | – | > 100 µM (inactive) | > 100 µM (inactive) | > 100 µM (inactive) | > 100 µM (inactive) | > 100 µM (inactive) | > 100 µM (inactive) | > 100 µM (inactive) | > 100 µM (inactive) | > 100 µM (inactive) | > 100 µM (inactive) | – | – | –
Cc1cc(N)c2cc(NC(=O)CCCCCCCCC(=O)Nc3ccc4nc(C)cc(N)c4c3)ccc2n1 | 18.1 µM (inactive) | 36.3 µM (inactive) | 10.3 µM (inactive) | 33.7 µM (inactive) | 32.9 µM (inactive) | 16.9 µM (inactive) | 22.2 µM (inactive) | 5.07 µM (inactive) | 1.98 µM (inactive) | > 100 µM (inactive) | 29.6 µM (inactive) | > 100 µM (inactive) | 5.58 µM (inactive) | > 38.4 µM (inactive) | 11.7 µM (inactive) | 18.4 µM (inactive) | – | – | –
COc1ccc(-c2onc(-c3ccc([N+](=O)[O-])cc3)c2C2=NCCN2)cc1 | > 100 µM (inactive) | > 100 µM (inactive) | > 100 µM (inactive) | – | 33.3 µM (inactive) | > 100 µM (inactive) | 79.6 µM (inactive) | > 100 µM (inactive) | > 10 µM (inactive) | > 100 µM (inactive) | 72.3 µM (inactive) | > 100 µM (inactive) | 83.6 µM (inactive) | 50.5 µM (inactive) | > 100 µM (inactive) | 67.6 µM (inactive) | – | – | –
CCC(c1ccc(OC)cc1)C1NC(=S)NC1=O (stereo not drawn) | > 50 µM (inactive) | 34.2 µM (inactive) | > 50 µM (inactive) | > 50 µM (inactive) | > 50 µM (inactive) | 17.5 µM (inactive) | > 50 µM (inactive) | 35.5 µM (inactive) | > 50 µM (inactive) | > 50 µM (inactive) | > 50 µM (inactive) | > 50 µM (inactive) | > 50 µM (inactive) | > 50 µM (inactive) | – | > 50 µM (inactive) | > 50 µM (inactive) | > 50 µM (inactive) | > 50 µM (inactive)
Cc1nc2c(n1CCC(C)C)C(=O)c1ccccc1C2=O | 14.3 µM (inactive) | 29.7 µM (inactive) | 40.9 µM (inactive) | – | 20.5 µM (inactive) | 8.07 µM (inactive) | 14.7 µM (inactive) | 8.26 µM (inactive) | 20.5 µM (inactive) | 27.9 µM (inactive) | 14.3 µM (inactive) | 17.5 µM (inactive) | 14.6 µM (inactive) | 39.7 µM (inactive) | 4.71 µM (inactive) | 12.7 µM (inactive) | – | – | –
O=C(CC12C3C4C1C1C2C3C41CC(=O)NO)NO (stereo not drawn) | 46.3 µM (inactive) | > 100 µM (inactive) | > 100 µM (inactive) | 39.3 µM (inactive) | 29.4 µM (inactive) | 25.2 µM (inactive) | 28.9 µM (inactive) | 45.8 µM (inactive) | 27.7 µM (inactive) | 33.1 µM (inactive) | 50 µM (inactive) | > 100 µM (inactive) | 27.4 µM (inactive) | > 100 µM (inactive) | 49.3 µM (inactive) | 35.7 µM (inactive) | – | – | –
O=[N+]([O-])C(=C(c1ccccc1)c1ccccc1)[N+](=O)[O-] | 12.4 µM (inactive) | > 10 µM (inactive) | 11.4 µM (inactive) | – | > 10 µM (inactive) | 20.5 µM (inactive) | 2.96 µM (inactive) | 3.32 µM (inactive) | 15.4 µM (inactive) | 9.86 µM (inactive) | 4.57 µM (inactive) | 2.43 µM (inactive) | – | 15.7 µM (inactive) | 3.29 µM (inactive) | 13.6 µM (inactive) | – | – | –
